Patent US20220104468A1, “MODULATION OF LC3-ASSOCIATED ENDOCYTOSIS PATHWAY AND GENETICALLY MODIFIED NON-HUMAN ANIMALS AS A MODEL OF NEUROINFLAMMATION AND NEURODEGENERATION” (St. Jude Children's Research Hospital, priority 2019, published 2022)

Key:
Atg16L^ΔWD mice [1] = assay: Brain pathology by immunofluorescence/TUNEL after 8 weeks of MCC950 in mice with established disease; format: in vivo, mouse; conditions: MCC950 10 mg/kg i.p. every 3 days for 8 weeks
Method: Inflammasome inhibition has recently been proposed as putative therapeutic approach that reduces neuroinflammation and Tau phosphorylation (PMID: 31748742). Thus, Atg16L WD-domain deficient mice (Atg16L^ΔWD mice) with established disease (starting at 20 months of age) and behavioral impairment, as measured by both impaired spontaneous alternation and NOR (FIGS. 19A-19B), were treated with the brain-penetrant inflammasome inhibitor MCC950. […] However, no difference in Aβ deposition was observed between placebo and MCC950-treated mice (FIG. 19E).
Atg16^ΔWD mice were generated by deletion of the WD-domain of Atg16L, as previously described (Rai et al 2018(online) Autophagy 15(4)599-612). In brief, 2 stop codons were inserted into exon 6 of murine Atg16L1 immediately after glutamate E230 to preserve binding sites for WIPI2 (required for canonical autophagy) but prevent translation of the linker and WD-domain. Mice were produced and maintained on a mixed 129, C57BL/6 background. Unless otherwise noted, all experiments were performed on mixed sex cohorts at 2 years of age. Mice treated with MCC950 or placebo were mixed sex cohorts, 20 months of age at time of treatment onset and were treated for 8-weeks. The genetic backgrounds of mice used were assessed at the DartMouse™ Speed Congenic Core Facility at the Geisel School of Medicine at Dartmouth. DartMouse uses the Illumina, Inc. (San Diego, Calif.) Infinium Genotyping Assay to interrogate a custom panel of 5307 SNPs spread throughout the genome. The raw SNP data was analyzed using DartMouse's SNaP-Map™ and Map-Synth™ software, allowing the determination for each mouse of the genetic background at each SNP location. Background strain percentage was subsequently compared against markers of disease pathology to evaluate any influence stemming from variations in background (FIG. 18).
For preparation of brain tissue see “Preparation of brain samples” below. Slides were subjected to antigen retrieval using 1% sodium citrate boiling for 20 min followed by 3× PBS washing. Slides were blocked in 0.5% BSA in PBS. Antibody staining was carried out as described above. Following final washing, slides were mounted using ProLong Diamond Anti-Fade mounting media with DAPI.
Image analysis for relative Aβ, Iba1, and phospho-Tau staining was achieved by quantifying the mean fluorescent intensity (MFI) of either Iba1 or phospho-Tau signal using NIS-elements. Analysis and quantification of microglial morphology was achieved using Slidebook 6 software. Morphological state was determined by measuring cell diameter following 3D reconstruction and confirmed by manual counting/analysis of microglia shape per defined field across multiple areas of each slide. […]

Atg16L^ΔWD mice [2] = assay: Y-maze spontaneous alternation after MCC950 treatment; format: in vivo, mouse; conditions: MCC950 8 weeks, trending towards wild-type littermates
Method: For Y-maze spontaneous alternation analysis, mice were housed in the testing room and allowed to acclimate for 48h. The Y-maze test consisted of a single 5 min trial per mouse. Spontaneous Alternation [%] was defined as consecutive entries in 3 different arms (ABC), divided by the number of possible alternations (total arm entries minus 2). Mice with less than 5 arm entries during the 5 min trial were excluded from the analysis.
(§1) Mice with established disease were treated for 8-weeks with either a vehicle (placebo) control or MCC950 (Invivogen) as reported previously (Gordon et al. 2018 Science Translational Medicine 10(465)). In brief, MCC950 was suspended in 100% DMSO and titrated to a working dose using sterile water. The final concentration of DMSO in the injection was <1%. Matching solution without MCC950 was used as the vehicle (placebo). Mice were injected every 3 days for 8-weeks at a dose of 10 mg/kg via intraperitoneal injection.

Atg16L^ΔWD mice [3] = assay: Novel object recognition (NOR) after MCC950 treatment; format: in vivo, mouse; conditions: MCC950 8 weeks, trending towards wild-type littermates
Method: Novel object recognition (NOR) was performed in an open-field box (40 cm×40 cm). Mice were allowed to acclimate to the testing room for 48h. For habituation, mice were allowed to explore the open-field for 15 min per day for two days. Mice were then exposed to two identical objects for 10 min on the day of testing. 2h later a novel object was introduced, and mice were allowed to explore for 5 min during the test phase. The time spent exploring each object was quantified manually. Novel object preference (%) and the discrimination index ((time with novel)/(novel+familiar)*100) were calculated for each mouse.
as §1

BV2 microglia [4] = assay: Phagocytosis versus endocytosis substrate uptake with latrunculin A (flow cytometry, imaging); format: cell-based, murine; conditions: 50 μM latrunculin A
Method: (§2) In an attempt to delineate the discrepancies in β-amyloid accumulation in the animal models presented above and the role of the autophagy proteins in this process, BV2 murine microglial cells expressing GFP-LC3 that are deficient in FIP200, ATG5, or Rubicon were engineered using CRISPR/Cas9 (FIG. 3A). Cells were cultured in the presence of neurotoxic oligomeric AP 1-42 labeled with TAMRA.
For all uptake assays, cells were analyzed without fixation. For membrane-associated GFP-LC3 analysis, cells were processed as described below. For brain infiltrating monocytes, cells were isolated as described using the Neural Tissue Dissociation Kit (Miltenyi). Primary cells were fixed, permeabilized, and stained using the Cyto Fix/Perm Staining Kit (BD Bioscience) and the indicated, conjugated primary antibodies. For all experiments, cells were analyzed using a Sony SP6800 Spectral Analyzer (Sony). All analyses were performed using FlowJo v10.4 (Tree Star). Fluorescent compensation was performed using BD compensation beads (BD Bioscience).
(§3) To delineate between phagocytosis and endocytosis, cells were treated as indicated with the phagocytic inhibitor latrunculin A. Cells were pre-treated for 1 h prior to the addition of target substrates. The following control substrates were used, zymosan (phagocytosis) and dextran (endocytosis), both were fluorescently labeled as indicated. Co-incubation with specific substrates was carried out at 37° C. for 3h. Cells were either fixed for imaging or analyzed by flow cytometry as described above respectively.

BV2 microglia [5] = assay: Membrane-associated GFP-LC3 by flow cytometry; format: cell-based, murine; conditions: parental BV2 microglia, latrunculin A versus vehicle
Method: as §2
To quantify membrane association of GFP-LC3, cells were harvested and permeabilized using 200 μg/ml digitonin for 15 min on ice. Cytosolic GFP-LC3 was removed by washing cells 5× in cold PBS. Cells were then resuspended in 0.5% BSA in PBS for analysis by flow cytometry as described above.
as §3

[6] = system: BV2 murine microglial cells expressing GFP-LC3; assay: LC3 recruitment/co-localization to β-amyloid in GFP-LC3 BV2 cells (imaging); format: cell-based; conditions: parental BV2 GFP-LC3 cells, TAMRA-labeled oligomeric peptide
Method: as §2
(§4) Both labeled and unlabeled Ab1-42 was purchased in lyophilized form and resuspended according to the manufacturer's recommendation at a concentration of 100 μM (Anaspec). In brief, Ab1-42 was resuspended to 5 mM in DMSO and then adjusted to 100 μM using DMEM/F12 culture media. Oligomerization was allowed to occur for 24h at 4° C. prior to addition to cells at 1 μM unless otherwise indicated.
For all non-live cell-based imaging, cells were cultured in 4-well chamber slides (Ibidi) and were fixed and stained as indicated. In brief, cells were fixed with 4% PFA for 10 min followed by permeabilization using 200 μg/ml digitonin for 10 min. Cells were blocked in 0.5% BSA in PBS for 30 min prior to staining with primary antibodies overnight at 4° C. Cells were then washed 3× in PBS and then stained with the indicated fluorescent secondary antibodies for 30 min. Cells were subsequently washed 3× with PBS and post-fixed in 1% PFA for 10 min prior to imaging. […]

BV2 cells = assay: Pro-inflammatory gene expression by qPCR after oligomeric Aβ1-42; format: cell-based, murine; conditions: BV2 cells treated with Aβ1-42
Method: Similarly, the effects of Aβ1-42 on microglia were examined. As expected, BV2 cells treated with Aβ1-42 had elevated pro-inflammatory gene expression, including IL-1β, IL-6, CCL5, and TNFα as reported (Pan et al. (2011) Mol Neurodegener 6:45) and consistent with human disease.
as §4
Total RNA was isolated from cells or tissue using the RNeasy Kit (Qiagen) according to the manufacturer's instructions. First-strand synthesis was performed using M-MLV reverse transcriptase (Invitrogen). Realtime PCR was performed using SYBR GREEN PCR master mix (Applied Biosystems) in an Applied Biosystems 7900HT thermocycler using SyBr Green detection protocol as outlined by the manufacturer using the following PCR conditions: 50° C. for 2 min, 95° C. for 10 min, and 40 cycles of 95° C. for 15s and 60° C. for 1 min. mRNA was normalized to actin allowing for comparison of mRNA levels. Please see key reagents table for qPCR primer sequences.

**Q.** `CC(C)(O)c1coc(S(=O)(=O)NC(=O)Nc2c3c(cc4c2CCC4)CCC3)c1` [MCC950] was tested. Which “microglial activation (Iba1 staining, hippocampus)” value (Atg16L^ΔWD mice [1]; 20 months at onset, compared to placebo) did it give?
**A.** reduced

**Q.** What about the “Aβ deposition (hippocampus)” value (Atg16L^ΔWD mice [1]; versus placebo) of the same molecule?
**A.** no difference

**Q.** And the “Tau phosphorylation (S199/202, CA3-field)” value (Atg16L^ΔWD mice [1]; versus placebo)?
**A.** massive reduction

**Q.** What about the “neurodegeneration as measured by TUNEL staining (CA3-field)” value (Atg16L^ΔWD mice [1]; versus placebo) of the same molecule?
**A.** massive reduction

**Q.** What about the “behavioral and memory capacity in the Y-maze (spontaneous alternation)” value (Atg16L^ΔWD mice [2]) of the same molecule?
**A.** restoration

**Q.** And the “behavioral and memory capacity in NOR (novel object preference, discrimination index)” value (Atg16L^ΔWD mice [3])?
**A.** restoration

**Q.** `C/C1=C/C(=O)O[C@@H]2C[C@@H](CC[C@H](C)/C=C\C=C\CC1)O[C@@](O)([C@@H]1CSC(=O)N1)C2` [latrunculin A] was tested. Which “uptake of the endocytic substrate dextran” value (BV2 microglia [4]; dextran 500 ng/ml) did it give?
**A.** had no effect

**Q.** What about the “internalization of the phagocytic substrate zymosan” value (BV2 microglia [4]; zymosan 4:1 particle:cell) of the same molecule?
**A.** prevented the internalization

**Q.** What about the “uptake of β-amyloid” value (BV2 microglia [4]; β-amyloid 1 μM) of the same molecule?
**A.** had no effect

**Q.** What about the “association of LC3 to endosomal membranes in response to β-amyloid” value (BV2 microglia [5]) of the same molecule?
**A.** did not alter

**Q.** For “Aβ1-42: neurotoxic oligomeric β-amyloid 1-42 peptide, labeled or unlabeled (Anaspec)”, which “co-localization/recruitment of LC3 to the β-amyloid” value [6] is on record?
**A.** induced rapid co-localization

**Q.** And the “pro-inflammatory gene expression, including IL-1β, IL-6, CCL5, and TNFα” value (BV2 cells)?
**A.** elevated
